From patent US7833979B2, “Toxin peptide therapeutic agents” (Amgen Inc., priority 2005, dated 2010)

Columns and labels:
[1] = test system: upregulation of CD40L and IL-2R on CD4+ T cells in human whole blood; test: Ex vivo human whole blood assay, thapsigargin-induced cell surface CD40L and IL-2R on T cells (FACS); format: cell-based; conditions: 24 hours
[2] = cited from earlier work
[3] = test system: IL-2 and IFNg production from anti-CD3 and anti-CD28 stimulated human PBMCs; test: Inhibition of T cell cytokine production following anti-CD3 and anti-CD28 antibody stimulation of PBMCs; format: cell-based; conditions: 48 hours
Method: Inhibition of T cell cytokine production following Anti-CD3 and anti-CD28 antibody stimulation of PBMCs. PBMCs were previously isolated from normal human donor Leukopheresis packs, purified by density gradient centrifugation (Ficoll Hypaque), and cryopreserved using INCELL Freezing Medium. PBMCs were thawed (95% viability), washed, and seeded (in RPMI complete medium containing serum replacement, PSG) at 2×10^5 cells per well into 96-well flat bottom plates. Cells were pre-incubated with serially diluted (100 nM-0.003 nM final) ShK[1-35], Fc-L10-ShK[1-35], or Fc control for 1 hour before the addition of aCD3 and aCD28 (2.5 ng/mL and 100 ng/mL respectively) in a final assay volume of […]. Supernatants were collected after 48 hours, and analyzed using the Meso Scale Discovery (MSD) SECTOR™ Imager 6000 (Meso Scale Discovery, Gaithersbury, Md.) to measure the IL-2 and IFNg protein levels by utilizing electrochemiluminescence (ECL). […] of supernatant was added to the MSD multi-spot 96-well plates (each well containing IL-2, TNFa, and IFNg capture antibodies). The plates were sealed and incubated at room temperature on a plate shaker for 1 hour. Then […] of Ruthenium-labeled detection antibodies (1 ug/ml final of IL-2, TNFα, and IFNγ in Antibody Dilution Buffer) and […] of 2×MSD Read Buffer were added. The plates were sealed, covered with tin foil, and incubated at room temperature on a plate shaker for 1 hour. The plates were then read on the SECTOR™ Imager 6000. […] (POC=Percent Of Control of response in the absence of inhibitor).

[4] = target: Kv1.3 (Homo sapiens, UniProt P22001); test: Whole cell patch clamp electrophysiology on HEK293 cells stably expressing human Kv1.3; format: cell-based; conditions: patch clamp electrophysiology
[5] = test system: thapsigargin-induced IL-2 and IFN-g production in human whole blood; test: Ex vivo human whole blood assay, thapsigargin-induced secretion of IL-2 and IFN-g; format: cell-based; conditions: two donors, 48 hours
[6] = Intravenous pharmacokinetic study in rats, serum levels by Kv1.3 inhibition bioassay; format: in vivo, Spraque Dawley rats; conditions: single equal molar IV injection, 5% serum Test solutions
Method: This dose represented equal molar amounts of these two molecules. The average weight of the rats was about 0.3 kg and two rats were used for each dose & molecule. At various times following IV injection, blood was drawn and about 0.1 ml of serum was collected. Serum samples were stored frozen at −80° C. until analysis.
Assay Plate preparation for electrophysiology. […] Before experiments, each sample was thawed at room temperature and an aliquot (70 to 80 μl) was transferred to a well in a 96-well polypropylene plate. In order to prepare the Assay Plate, several dilutions were made from the pharmacokinetic serum samples to give rise to Test Solutions. Dilutions of serum samples from the pharmacokinetic study were into 10% Phosphate Buffered Saline (PBS, with Ca^2+ and Mg^2+). […] Standard inhibition curves were also prepared in the Assay Plate.
Cell preparation for electrophysiology. CHO cells stably expressing the voltage-activated K^+ channel, Kv1.3 were plated in T-175 tissue culture flasks (at a density of 5×10^6) 2 days before experimentation and allowed to grow to around 95% confluence. Immediately prior to the experiment, the cells were washed with PBS and then detached with a 2 ml mixture (1:1 volume ratio) of trypsin (0.25%) and versene (1:5000) at 37° C. (for 3 minutes). […] The mean K^+ current amplitude was measured between 430 and 440 ms and the data were exported to a Microsoft Excel spreadsheet. The amplitude of the K^+ current in the presence of each concentration of the Test Solution or Standard was expressed as a percentage of the K^+ current in control conditions in the same well.
Standard inhibition curves were generated for each standard in various levels of rat serum and expressed as current percent of control (POC) versus log of nM concentration. […]
Beyond 48 hours, the level of drug falls outside the linear range of the Standard curve and is not calculated. […]

Kv1.3, sequence (P22001 whole entry): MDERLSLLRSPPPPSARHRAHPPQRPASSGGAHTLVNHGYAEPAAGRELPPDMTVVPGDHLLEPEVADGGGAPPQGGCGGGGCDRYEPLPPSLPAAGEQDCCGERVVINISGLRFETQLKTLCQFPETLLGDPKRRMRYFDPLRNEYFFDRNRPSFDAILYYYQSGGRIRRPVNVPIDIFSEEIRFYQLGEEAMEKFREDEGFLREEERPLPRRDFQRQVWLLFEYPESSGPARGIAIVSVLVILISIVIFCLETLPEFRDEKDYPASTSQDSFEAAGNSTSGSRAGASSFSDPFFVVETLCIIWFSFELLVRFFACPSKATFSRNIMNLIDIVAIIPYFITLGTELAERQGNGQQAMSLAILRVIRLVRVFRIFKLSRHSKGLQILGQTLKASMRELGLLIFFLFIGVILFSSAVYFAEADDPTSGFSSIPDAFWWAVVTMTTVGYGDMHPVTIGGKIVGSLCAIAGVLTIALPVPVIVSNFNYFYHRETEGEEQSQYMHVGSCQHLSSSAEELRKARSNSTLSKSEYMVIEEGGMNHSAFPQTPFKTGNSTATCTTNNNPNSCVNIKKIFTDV

CC[C@H](C)[C@@H]1NC(=O)[C@@H](NC(=O)[C@H](CO)NC(=O)[C@@H](N)CCCNC(=N)N)CSSC[C@@H](C(=O)O)NC(=O)[C@H]([C@@H](C)O)NC(=O)CNC(=O)[C@@H]2CSSC[C@@H]3NC(=O)[C@H](CCC(N)=O)NC(=O)[C@H](Cc4ccccc4)NC(=O)[C@H](C)NC(=O)[C@H]([C@@H](C)O)NC(=O)[C@H](CSSC[C@H](NC(=O)[C@H](Cc4ccccc4)NC(=O)[C@H](CO)NC(=O)[C@H](CC(C)C)NC(=O)[C@H](CCCNC(=N)N)NC(=O)[C@H](Cc4ccc(O)cc4)NC(=O)[C@H](CCCCN)NC(=O)[C@H](CCSC)NC(=O)[C@H](CO)NC(=O)[C@H](Cc4cnc[nH]4)NC(=O)[C@H](CCCCN)NC3=O)C(=O)N[C@@H](CCCNC(=N)N)C(=O)N[C@@H](CCCCN)C(=O)N[C@@H]([C@@H](C)O)C(=O)N2)NC(=O)[C@H](CCCNC(=N)N)NC(=O)[C@H](CO)NC(=O)[C@H](CCCCN)NC(=O)[C@@H]2CCCN2C(=O)[C@H]([C@@H](C)CC)NC(=O)[C@H]([C@@H](C)O)NC(=O)[C@H](CC(=O)O)NC1=O [ShK[1-35], Stichodactyla helianthus neurotoxin, reference compound]
Thapsigargin-induced upregulation of CD40L on T cells in human whole blood [1]: suppressed
Thapsigargin-induced upregulation of the IL-2R on T cells in human whole blood [1]: suppressed
Thapsigargin-induced upregulation of the IL-2R on T cells in human whole blood ([1]; listed as ShK): suppressing activation of the IL-2R
half-life in vivo of ShK [2]: ~20 min
half-life of native ShK ([2]; in vivo): approximately 0.33 hour
Inhibition of IFNg production [3]: only partial inhibtion
Inhibition of IL-2 production [3]: only partial inhibtion
Blockade of human Kv1.3 current (in words) [4]: potently block Kv1.3
Thapsigargin-induced IFN-g production in human whole blood [5]: suppressed
Thapsigargin-induced IL-2 production in human whole blood [5]: suppressed
Thapsigargin-induced IL-2 production in human whole blood ([5]; listed as ShK): potently blocked IL-2 secretion
Time of significant suppression of Kv1.3 current (<70 POC) by serum [6]: ≤ 1 h
